Holding throughout (assay type): physicochemical
The nature of series [1]: Solid state stability study: chemical and physical stability by HPLC and DSC. Conditions: for solid state instability (associated with water uptake): hygroscopicity studies. How it is done: Hygroscopicity/Solid State Stability Studies Samples (ca 10 mg) were sieved (250 μm) and then stored at each of the following conditions of temperature (T) and relative humidity (RH) for up to 4 weeks: 30° C. at II, 75 and 90% RH and 40° C. at II, 75 and 90% RH, the required humidities being achieved using the appropriate saturated salt solution in a dessicator. Measurements of water content changes were conducted by weight analysis using a microbalance and by Karl Fischer titrimetry (KFT), and chemical and physical stability evaluation by high performance liquid chromatography (HPLC) and DSC. HPLC analyses were performed on a LDC isocratic system under the following conditions: column—Novapak C18, 5μm, 15 cm; mobile phase—pH 6.0, 60:40 v/v 0.02M KH2PO4 (0.5% triethylamine): methanol; detection—UV (254 nm); flow rate—1.0 ml/min; injection volume —20 μl; sample 0.1 mg/ml in mobile phase.

A further series in a line: Compression studies. Conditions: for behaviour on compression (colour change, melting, punch filming): 5 tonnes for 1 minute, 13 mm punch and die set. How it is done: Samples (200 mg) were compressed using a bench IR press (Graseby Specac Model 15.011) at 5 tonnes for 1 minute using a 13 mm punch and die set, then assessed for colour change and evidence of melting. Further analysis (DSC and HPLC) was conducted after grinding of the compact using a mortar and pestle.

The nature of series [2]: Polymorphic conversion by DSC. How it is done: Samples (ca 5 mg) of each form were analysed using a Perkin-Elmer 7 Series thermal analyser at a scanning rate of 20° C. per minute. For identification of the respective endotherms, shown in the representative DSC thermograms of FIGS. 3A and 3B, vide supra. DSC was used to determine both the polymorphic conversions of the β-forms of the hydrobromide and hemisulphate salts to their respective α-forms, and also the conversion of the α-form of the hydrochloride salt to its β-form which is believed to be an anhydrate-hydrate transition.
In general terms: DSC measures the heat that a sample takes up or gives off during a temperature scan.

The nature of series [3]: Hygroscopicity study: moisture change by weight analysis and Karl Fischer titrimetry. As to conditions: for colour change of sample accompanying water uptake: hygroscopicity study, 40° C./75% RH. How it is done: Hygroscopicity/Solid State Stability Studies Samples (ca 10 mg) were sieved (250 μm) and then stored at each of the following conditions of temperature (T) and relative humidity (RH) for up to 4 weeks: 30° C. at II, 75 and 90% RH and 40° C. at II, 75 and 90% RH, the required humidities being achieved using the appropriate saturated salt solution in a dessicator. Measurements of water content changes were conducted by weight analysis using a microbalance and by Karl Fischer titrimetry (KFT), and chemical and physical stability evaluation by high performance liquid chromatography (HPLC) and DSC. KFT was performed using a Mitsubishi moisturemeter and ca 10 mg of each sample.

Where [4] appears, read: listed as α-form of the hydrobromide salt.
Setting [5] is: listed as α-form of the hemisulphate salt.
[6] abbreviates: listed as β-form of the hemisulphate salt.

The structures appear in SMILES notation. “Also recorded” adds a separate entry of the source. Where a name gives a salt, the structure may show the parent alone. Read-outs that look alike come from different tables or passages of the source.

On to `CN1CCC[C@@H]1Cc1c[nH]c2ccc(CCS(=O)(=O)c3ccccc3)cc12` [α-HBr, 3-(N-Methyl-2(R)-pyrrolidinylmethyl)-5-(2-phenylsulphonylethly)-1H-indole hydrobromide, α-form], for which, in series [1] (T=40° C./RH=90% samples), the “change in DSC profile” value is “No change”. Also, the “chemical stability by HPLC analysis” value in series [1] (all of the conditions studied (30 and 40° C., 11, 75, 90% RH, up to 4 weeks)) is on record as “confirmed its stability”. In addition, the “behaviour on compression (colour change, melting, punch filming)” value in the series “Compression studies” (setting [4]) is “no evidence of a change in sample appearance or punch filming”. Also, in “Compression studies” (DSC after compression or grinding), the “changes to the thermogram (melting point, enthalpy of fusion) after compression or grinding” value is reported as “no changes”. In series [2] (setting [4]), the polymorphic conversion result was “No polymorphic transitions”. In series [3] (30 and 40° C., 11, 75 and 90% RH, up to 4 weeks), the “weight over the course of the hygroscopicity study (in words)” value is listed as “relatively stable weights”. Besides, the “moisture change determined by % weight change” value is listed as −0.45% in series [3] (T/RH 30/11 (30° C., 11% RH), Week 1); −0.51% in series [3] (T/RH 30/11, Week 2); “+0.20%” in series [3] (T/RH 30/11, Week 3); “+0.09%” in series [3] (T/RH 30/11, Week 4); “+0.08%” in series [3] (T/RH 30/75, Week 1); “+0.01%” in series [3] (T/RH 30/75, Week 2). Also, the “moisture change determined by % weight change” value was “+0.17%” in series [3] (T/RH 30/75, Week 3); “+0.25%” in series [3] (T/RH 30/75, Week 4); “+0.53%” in series [3] (T/RH 30/90, Week 1); “+0.46%” in series [3] (T/RH 30/90, Week 2); “+0.50%” in series [3] (T/RH 30/90, Week 3); “+0.49%” in series [3] (T/RH 30/90, Week 4). For the same compound, the “moisture change determined by % weight change” value in series [3] (T/RH 40/11, Week 1) was −0.48%; in series [3] (T/RH 40/11, Week 2) it was “+0.58%”; in series [3] (T/RH 40/11, Week 3), −0.51%; in series [3] (T/RH 40/11, Week 4) it was −0.49%; in series [3] (T/RH 40/75, Week 1) it was “+0.06%”; in series [3] (T/RH 40/75, Week 2), “+0.23%”. Also, the “moisture change determined by % weight change” value in series [3] (T/RH 40/75, Week 3) is listed as 0.00%; in series [3] (T/RH 40/75, Week 4) it was “+0.11%”; in series [3] (T/RH 40/90, Week 1) it was “+0.87%”; in series [3] (T/RH 40/90, Week 2), “+1.27%”; in series [3] (T/RH 40/90, Week 3) it was “+1.16%”; in series [3] (T/RH 40/90, Week 4), “+1.23%”. In series [3] (setting [4]), the “hygroscopicity (in words)” value is given as “lack of hygroscopicity”.

With `CN1CCC[C@@H]1Cc1c[nH]c2ccc(CCS(=O)(=O)c3ccccc3)cc12` [α-form of the hydrochloride salt, 3-(N-methyl-2(R)-pyrrolidinylmethyl)-5-(2-phenylsulphonylethyl)-1H-indole], in “Compression studies”, the “behaviour on compression (colour change, melting, punch filming)” value is recorded as “did not melt on compaction”. Moreover, the polymorphic conversion result in series [2] is “converts to the hydrated β-form; also recorded: transformation of the α-form to the β-form”. The “water uptake (in words)” value in series [3] (T 40° C., RH 75%, seven days (1 week)) is reported as “a significant amount of water had been taken up; also recorded: picked up a significant amount of moisture”.

As to `CN1CCC[C@@H]1Cc1c[nH]c2ccc(CCS(=O)(=O)c3ccccc3)cc12` [α-½H2SO4, 3-(N-methyl-2(R)-pyrrolidinylmethyl)-5-(2-phenylsulphonylethyl)-1H-indole], in series [1] (setting [5]), the “solid state instability (associated with water uptake)” value was “does not display solid state instability”. The “moisture change determined by % weight change” value is given as “+6.0%” in series [3] (T/RH 40/75, Week 1); “+4.85%” in series [3] (T/RH 40/75, Week 2); “+5.46%” in series [3] (T/RH 40/75, Week 3); “+4.04%” in series [3] (T/RH 40/75, Week 4). Moreover, the “colour change of sample accompanying water uptake” value in series [3] (setting [5]) is listed as “no concomitant colour”. The “hygroscopicity (in words)” value in series [3] (setting [5]) is “extremely hygroscopic”.

On to `CN1CCC[C@@H]1Cc1c[nH]c2ccc(CCS(=O)(=O)c3ccccc3)cc12` [β-form of the hydrobromide salt], for which the polymorphic conversion result in series [2] is given as “undergoes polymorphic conversion to a higher melting form”.

In the case of `CN1CCC[C@@H]1Cc1c[nH]c2ccc(CCS(=O)(=O)c3ccccc3)cc12` [β-form of the hydrochloride salt, 3-(N-methyl-2(R)-pyrrolidinylmethyl)-5-(2-phenylsulphonylethyl)-1H-indole], the “solid state instability (associated with water uptake)” value in series [1] is “does not display solid state instability; also recorded: no solid state instability being detected”. The “behaviour on compression (colour change, melting, punch filming)” value in “Compression studies” is “melting and sticking of the disk to the punches were observed; also recorded: melts and causes sticking of the disk to the punches”. Moreover, the “hygroscopicity (in words)” value in series [3] (T=40° C./RH=75%, weight change and KFT at week 4) is given as “non-hygroscopic”.

As to `CN1CCC[C@@H]1Cc1c[nH]c2ccc(CCS(=O)(=O)c3ccccc3)cc12` [β-½H2SO4, 3-(N-methyl-2(R)-pyrrolidinylmethyl)-5-(2-phenylsulphonylethyl)-1H-indole], the “behaviour on compression (colour change, melting, punch filming)” value in “Compression studies” (setting [6]) is “undergoes a colour change on compression and causes punch-filming during tabletting; also recorded: undergoes a colour change on compression and also causes punch filming on compaction”. Moreover, in series [2] (setting [6]), the polymorphic conversion entry is “water uptake can cause polymorphic conversion to an alternative form; also recorded: polymorphic conversion to the α-form”. Besides, the “moisture change determined by % weight change” value in series [3] (T/RH 40/75, Week 1) is on record as “+1.33%”; in series [3] (T/RH 40/75, Week 2), “+3.79%”; in series [3] (T/RH 40/75, Week 3) it was “+3.38%”; in series [3] (T/RH 40/75, Week 4), “+1.69%”. Moreover, in series [3] (setting [6]), the “colour change of sample accompanying water uptake” value is reported as “change in colour of the sample from cream to yellow”. Moreover, the “hygroscopicity (in words)” value in series [3] (relative humidities (RH) higher than 50%) is “very hygroscopic”.

(Values after US6380226B1, “Salts of an anti-migraine indole derivatives” (Pfizer Inc, priority 1994, dated 2002).)
